Experimental data as given in BigSolDB 2.1.

O=C(O)c1cccc2ccccc12
solubility (mole fraction)
Details | in acetic acid | in ethanol | in ethyl acetate | in isobutanol | in isopropanol | in methanol | in methyl acetate | in n-butanol | in n-propanol
293.15 K | 0.0172 | 0.0282 | 0.0294 | 0.0187 | 0.0251 | 0.0206 | 0.0257 | 0.03 | 0.027
298.15 K | 0.0194 | 0.0311 | 0.0329 | 0.0213 | 0.0284 | 0.0229 | 0.0301 | 0.0344 | 0.0302
303.15 K | 0.0224 | 0.0356 | 0.0374 | 0.0257 | 0.034 | 0.0269 | 0.0335 | 0.0389 | 0.0351
308.15 K | 0.0257 | 0.0402 | 0.0418 | 0.0311 | 0.0401 | 0.0304 | 0.0387 | 0.0444 | 0.0407
313.15 K | 0.0296 | 0.0457 | 0.0472 | 0.0364 | 0.0472 | 0.0351 | 0.043 | 0.0514 | 0.0461
318.15 K | 0.0334 | 0.0513 | 0.0534 | 0.0427 | 0.0544 | 0.0392 | 0.0498 | 0.0605 | 0.0536
323.15 K | 0.0383 | 0.0574 | 0.06 | 0.0502 | 0.0636 | 0.0443 | 0.055 | 0.0684 | 0.0604
328.15 K | 0.0439 | 0.0654 | 0.0673 | 0.0588 | 0.0731 | 0.0496 | 0.0622 | 0.079 | 0.0702
333.15 K | 0.0503 | 0.0738 | 0.0754 | 0.0685 | 0.0852 | 0.0557 | – | 0.0901 | 0.0795
